pEC50: −log10 of the molar value.
Key:
[1] = tested on: mouse pancreatic β cell line MIN6; experiment: Promotion of insulin secretion from MIN6 (insulin immunoassay); assay type: cell-based; settings: MIN6, KRBH with 22 mM glucose, 90 min
Procedure: (§1) Mouse pancreatic β cell line MIN6 cultured in a flask was detached with PBS containing 2.5 mM EDTA, and seeded and incubated in a 96 well plate for 2 days. The medium used was obtained by adding 15% fetal bovine serum (ThermoTrace), […] 2-mercaptoethanol (Invitrogen), 20 mM HEPES pH 7.3, 100 U/ml penicillin and 100 μg/ml streptomycin to Dulbecco's Modified Eagle Medium (DMEM, Invitrogen) containing 4.5 g/l of glucose. The cells were washed twice with modified Krebs-Ringer bicarbonate buffer (KRBH, 116 mM NaCl, 4.7 mM KCl, 1.2 mM KH2PO4, 1.2 mM MgSO4, 2.5 mM CaCl2, 25 mM NaHCO3, 24 mM HEPES pH 7.3) and preincubated at 37° C. under 5% CO2 conditions for 30 min. Fatty acid diluted and prepared with a buffer obtained by adding 22 mM glucose to the above-mentioned KRBH was added to the cell after preincubation and the cells were incubated at 37° C. under 5% CO2 conditions for 90 min. After incubation, the cell supernatant was recovered and cryopreserved. The insulin content of the supernatant was measured using a commercially available insulin immunoassay kit (Amersham Pharmacia Biotech).
as §1, with “(KBH,” for “(KRBH,”, “The compound” for “Fatty acid”

[2] = tested on: Male SD rats; experiment: In vivo insulin secretion promoting effect and hypoglycemic action, oral glucose tolerance test; parameters: species or system rat; settings: 30 mg/kg oral, glucose 2 g/kg oral 30 min after administration, Williams test p<=0.025
Procedure: Male SD rats (CLEA Japan, Inc, 7-week-old) were fasted for one day, and divided into groups (6 per group) based on blood glucose level and body weight. A suspension of the compound of Example 41 in 0.5% methyl cellulose was orally administered at the dose of 30 mg/kg and glucose (2 g/kg) was orally loaded at 30 min after administration. Only 0.5% methyl cellulose was administered to the control group, and similarly loaded with glucose. Plasma was taken before glucose tolerance test, and 7, 30 and 60 minutes after glucose tolerance test, and the blood glucose level and insulin concentration were measured. The blood glucose level was measured by HITACHI autoanalyzer 7070, and insulin was measured by radioimmunoassay ([^125L] Sionoria insulin, Shionogi & Co., Ltd.).

[3] = biological target: T1, human GPR40 (Homo sapiens, UniProt O14842); experiment: Effect of regulation of GPR40 receptor function (agonistic effect), intracellular calcium by FLIPR; assay type: cell-based; settings: CHO cell line (No. 104) expressing human GPR40, fluorescence intensity at 30 sec after start of reaction
T1 construct: expressed in transfected cells; host or cells: CHO cell line CHO-hGPR40 No. 104 (pAKKO-111 vector)
Procedure: CHO cell line (No. 104) made to express human GPR40 was diluted such that 3×10^4 cells/100 μL were contained, dispensed to a black walled 96-well plate (Costar) at 100 μL per well, and incubated overnight in a CO2 incubator. The changes in the intracellular calcium concentration were measured using FLIPR (Molecular Device). The method is described in the following.
Fluo-3AM (DOJIN) (50 μg) was dissolved in 21 μl DMSO (DOJIN), and an equal amount of 20% pluronic acid (Molecular Probes) was added and mixed, and the mixture was added to 10.6 ml of an assay buffer [prepared by adding 20 ml of 1M HEPES (pH 7.4) (DOJIN) to 1 L of HBSS (Invitrogen), and adding a mixed solution (10 ml) obtained by dissolving probenecid (Sigma) (710 mg) in 1N NaOH (5 ml) and adding and mixing with the above-mentioned HBSS/HEPES solution (5 ml)] supplemented with 105 μl of fetal calf serum to give a fluorescence dye solution. The medium in the cell plate was removed, a fluorescence dye solution was immediately dispensed at 100 μl per well, and incubated in a CO2 incubator for 1 hr to incorporate fluorescence dye into the cell. The incubated cells were washed with the above-mentioned assay buffer. The compound to be added to the cell was diluted with the assay buffer to each concentration and dispensed to a test sample plate. After the above-mentioned pretreatment, changes in the intracellular calcium concentration after addition of the compound was measured by FLIPR, and the agonistic effect was examined. EC50 value was calculated from a dose response curve based on the changes in the fluorescence intensity value at 30 sec after the start of the reaction.

T1 sequence (O14842 whole entry): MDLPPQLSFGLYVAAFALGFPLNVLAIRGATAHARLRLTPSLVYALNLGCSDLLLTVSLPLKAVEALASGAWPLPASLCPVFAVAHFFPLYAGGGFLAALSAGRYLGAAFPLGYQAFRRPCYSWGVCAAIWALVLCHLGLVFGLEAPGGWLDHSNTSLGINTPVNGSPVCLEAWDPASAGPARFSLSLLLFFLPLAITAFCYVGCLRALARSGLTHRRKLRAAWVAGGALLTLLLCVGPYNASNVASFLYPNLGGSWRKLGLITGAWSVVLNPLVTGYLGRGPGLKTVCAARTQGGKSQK

- pEC50 [3]: 7.26
SMILES: O=C(O)CCc1ccc(O[C@@H]2CCc3ccccc32)cc1 [Example 41, (R)-4-[(2,3-dihydro-1H-inden-1-yl)oxy]benzenepropanoic acid]
- insulin secretion enhancing activity [1]: significant insulin secretion enhancing activity
- increase in insulin versus control group ([2]; at 7 minutes after glucose tolerance test): significantly greater increase in insulin
- increase in blood glucose level versus control group ([2]; at 30 minutes after glucose tolerance test): significantly suppressed increase in the blood glucose level

Reference: patent US7960369B2, “Receptor function regulator” (Takeda Pharmaceutical Company Limited, priority 2002, dated 2011)
